Results: PubChem BioAssay (NCI)
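Tested at 5 concentrations; 48 h exposure; 96-well plates; endpoints linearly interpolated, else capped at highest concentration. GI50 marks 50% less growth. The concentration for full growth arrest is given as TGI.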

Key:
Assay in all cases: NCI anticancer screen, dose series, 48 h; in the data active means GI50 below about 0.43 µM; inactive means the rest
PC-3 prostate = tested on: PC-3 prostate
MDA-MB-435 = tested on: MDA-MB-435
KM12 colon = tested on: KM12 colon
UACC-62 melanoma = tested on: UACC-62 melanoma
HCC-2998 colon = tested on: HCC-2998 colon
SF-268 CNS = tested on: SF-268 CNS
HT29 colon = tested on: HT29 colon
CCRF-CEM leukemia = tested on: CCRF-CEM leukemia
DU-145 prostate = tested on: DU-145 prostate
IGROV1 ovarian = tested on: IGROV1 ovarian
MDA-MB-231 breast = tested on: MDA-MB-231 breast
SNB-75 CNS = tested on: SNB-75 CNS
SK-MEL-5 melanoma = tested on: SK-MEL-5 melanoma
SF-539 CNS = tested on: SF-539 CNS
HCT-116 colon = tested on: HCT-116 colon
CAKI-1 renal = tested on: CAKI-1 renal
SNB-19 CNS = tested on: SNB-19 CNS
OVCAR-4 ovarian = tested on: OVCAR-4 ovarian
COLO 205 colon = tested on: COLO 205 colon
SF-295 CNS = tested on: SF-295 CNS
ACHN renal = tested on: ACHN renal
U251 CNS = tested on: U251 CNS
BT-549 breast = tested on: BT-549 breast
NCI-H226 lung = tested on: NCI-H226 lung
SK-MEL-28 melanoma = tested on: SK-MEL-28 melanoma
MCF7 breast = tested on: MCF7 breast
NCI-H23 lung = tested on: NCI-H23 lung
SK-MEL-2 melanoma = tested on: SK-MEL-2 melanoma
OVCAR-5 ovarian = tested on: OVCAR-5 ovarian
SN12C renal = tested on: SN12C renal
NCI-H460 lung = tested on: NCI-H460 lung
786-0 renal = tested on: 786-0 renal
SW-620 colon = tested on: SW-620 colon
HS 578T breast = tested on: HS 578T breast
TK-10 renal = tested on: TK-10 renal
MALME-3M melanoma = tested on: MALME-3M melanoma
HOP-62 NSCLC = tested on: HOP-62 NSCLC
A549 NSCLC = tested on: A549 NSCLC
UACC-257 melanoma = tested on: UACC-257 melanoma
T-47D breast = tested on: T-47D breast
HCT-15 colon = tested on: HCT-15 colon
A498 renal = tested on: A498 renal
K-562 leukemia = tested on: K-562 leukemia
SR leukemia = tested on: SR leukemia
EKVX NSCLC = tested on: EKVX NSCLC
OVCAR-8 ovarian = tested on: OVCAR-8 ovarian
NCI/ADR-RES ovarian = tested on: NCI/ADR-RES ovarian
NCI-H522 lung = tested on: NCI-H522 lung
RPMI-8226 leukemia = tested on: RPMI-8226 leukemia
MOLT-4 leukemia = tested on: MOLT-4 leukemia
OVCAR-3 ovarian = tested on: OVCAR-3 ovarian
HL-60(TB) leukemia = tested on: HL-60(TB) leukemia
HOP-92 NSCLC = tested on: HOP-92 NSCLC
RXF 393 renal = tested on: RXF 393 renal
SK-OV-3 ovarian = tested on: SK-OV-3 ovarian
UO-31 renal = tested on: UO-31 renal
M14 melanoma = tested on: M14 melanoma
LOX IMVI melanoma = tested on: LOX IMVI melanoma
MDA-N = tested on: MDA-N

CCN(CC)c1ccc(/C=N\NC(=O)c2cccc(Nc3ccnc(C(F)(F)F)c3)c2)c(O)c1
31000 nM: TGI (HCT-116 colon)
1960 nM: TGI (HOP-62 NSCLC)
7440 nM: TGI (SNB-75 CNS)
15700 nM: TGI (NCI-H522 lung)
> 65100 nM: TGI (BT-549 breast)
11600 nM: TGI (HS 578T breast)
7260 nM: TGI (HT29 colon)
496 nM: TGI (CAKI-1 renal)
2690 nM: TGI (UO-31 renal)
active: GI50 (MDA-MB-435) 412 nM | GI50 (KM12 colon) 342 nM | GI50 (UACC-62 melanoma) 250 nM | GI50 (HCC-2998 colon) 278 nM | GI50 (SF-268 CNS) 83 nM | GI50 (HT29 colon) 301 nM | GI50 (CCRF-CEM leukemia) 84 nM | GI50 (DU-145 prostate) 159 nM | GI50 (IGROV1 ovarian) 143 nM | GI50 (MDA-MB-231 breast) 345 nM | GI50 (SNB-75 CNS) 253 nM | GI50 (SK-MEL-5 melanoma) 242 nM | GI50 (SF-539 CNS) 279 nM | GI50 (HCT-116 colon) 121 nM | GI50 (CAKI-1 renal) 182 nM | GI50 (SNB-19 CNS) 418 nM | GI50 (OVCAR-4 ovarian) 118 nM | GI50 (COLO 205 colon) 327 nM | GI50 (SF-295 CNS) 312 nM | GI50 (ACHN renal) 218 nM | GI50 (U251 CNS) 183 nM | GI50 (NCI-H226 lung) 311 nM | GI50 (SK-MEL-28 melanoma) 191 nM | GI50 (MCF7 breast) 296 nM | GI50 (OVCAR-5 ovarian) 408 nM | GI50 (SN12C renal) 278 nM | GI50 (NCI-H460 lung) 199 nM | GI50 (786-0 renal) 270 nM | GI50 (SW-620 colon) 366 nM | GI50 (HS 578T breast) 374 nM | GI50 (TK-10 renal) 371 nM | GI50 (MALME-3M melanoma) 348 nM | GI50 (HOP-62 NSCLC) 184 nM | GI50 (UACC-257 melanoma) 373 nM | GI50 (HCT-15 colon) 123 nM | GI50 (K-562 leukemia) 374 nM | GI50 (SR leukemia) 96.7 nM | GI50 (EKVX NSCLC) 219 nM | GI50 (OVCAR-8 ovarian) 342 nM | GI50 (NCI-H522 lung) 393 nM | GI50 (RPMI-8226 leukemia) 152 nM | GI50 (MOLT-4 leukemia) 126 nM | GI50 (OVCAR-3 ovarian) 271 nM | GI50 (HL-60(TB) leukemia) 299 nM | GI50 (RXF 393 renal) 216 nM | GI50 (UO-31 renal) 202 nM | GI50 (M14 melanoma) 217 nM | GI50 (LOX IMVI melanoma) 133 nM
> 20800 nM: TGI (SK-MEL-28 melanoma)
> 41200 nM: TGI (SK-MEL-2 melanoma)
885 nM: TGI (786-0 renal)
> 37500 nM: TGI (U251 CNS)
883 nM: TGI (SK-MEL-5 melanoma)
1680 nM: TGI (UACC-62 melanoma)
17000 nM: TGI (A498 renal)
> 39300 nM: TGI (OVCAR-5 ovarian)
2470 nM: TGI (SF-295 CNS)
3800 nM: TGI (EKVX NSCLC)
> 27300 nM: TGI (SF-268 CNS)
> 40400 nM: TGI (ACHN renal)
1900 nM: TGI (RXF 393 renal)
2240 nM: TGI (NCI-H460 lung)
1050 nM: TGI (HL-60(TB) leukemia)
2200 nM: TGI (RPMI-8226 leukemia)
4320 nM: TGI (MALME-3M melanoma)
> 24100 nM: TGI (MDA-MB-435)
1270 nM: TGI (CCRF-CEM leukemia)
> 100000 nM: TGI (PC-3 prostate) | TGI (KM12 colon) | TGI (DU-145 prostate) | TGI (SNB-19 CNS) | TGI (OVCAR-4 ovarian) | TGI (MCF7 breast) | TGI (NCI-H23 lung) | TGI (SW-620 colon) | TGI (TK-10 renal) | TGI (A549 NSCLC) | TGI (T-47D breast) | TGI (HCT-15 colon) | TGI (K-562 leukemia) | TGI (OVCAR-8 ovarian) | TGI (OVCAR-3 ovarian) | TGI (HOP-92 NSCLC) | TGI (SK-OV-3 ovarian)
inactive: GI50 (PC-3 prostate) 646 nM | GI50 (BT-549 breast) 427 nM | GI50 (NCI-H23 lung) 575 nM | GI50 (SK-MEL-2 melanoma) 893 nM | GI50 (A549 NSCLC) 587 nM | GI50 (T-47D breast) 485 nM | GI50 (A498 renal) 541 nM | GI50 (NCI/ADR-RES ovarian) 765 nM | GI50 (HOP-92 NSCLC) 1350 nM | GI50 (SK-OV-3 ovarian) 499 nM
> 36500 nM: TGI (SN12C renal)
> 43100 nM: TGI (MDA-MB-231 breast)
8760 nM: TGI (HCC-2998 colon)
1450 nM: TGI (SF-539 CNS)
2220 nM: TGI (LOX IMVI melanoma)
2580 nM: TGI (COLO 205 colon)
1490 nM: TGI (MOLT-4 leukemia)
1430 nM: TGI (M14 melanoma)
736 nM: TGI (SR leukemia)
> 28100 nM: TGI (NCI/ADR-RES ovarian)
3480 nM: TGI (NCI-H226 lung)

O/N=C1/CCCCC1NO (centres undefined)
> 100000 nM: TGI (PC-3 prostate) | TGI (MDA-MB-435) | TGI (KM12 colon) | TGI (UACC-62 melanoma) | TGI (HCC-2998 colon) | TGI (SF-268 CNS) | TGI (HT29 colon) | TGI (CCRF-CEM leukemia) | TGI (DU-145 prostate) | TGI (IGROV1 ovarian) | TGI (MDA-MB-231 breast) | TGI (SNB-75 CNS) | TGI (SK-MEL-5 melanoma) | TGI (SF-539 CNS) | TGI (HCT-116 colon) | TGI (CAKI-1 renal) | TGI (SNB-19 CNS) | TGI (OVCAR-4 ovarian) | TGI (COLO 205 colon) | TGI (SF-295 CNS) | TGI (ACHN renal) | TGI (U251 CNS) | TGI (NCI-H226 lung) | TGI (SK-MEL-28 melanoma) | TGI (MCF7 breast) | TGI (MDA-N) | TGI (NCI-H23 lung) | TGI (SK-MEL-2 melanoma) | TGI (OVCAR-5 ovarian) | TGI (SN12C renal) | TGI (NCI-H460 lung) | TGI (786-0 renal) | TGI (SW-620 colon) | TGI (HS 578T breast) | TGI (TK-10 renal) | TGI (MALME-3M melanoma) | TGI (HOP-62 NSCLC) | TGI (A549 NSCLC) | TGI (UACC-257 melanoma) | TGI (T-47D breast) | TGI (HCT-15 colon) | TGI (K-562 leukemia) | TGI (SR leukemia) | TGI (EKVX NSCLC) | TGI (OVCAR-8 ovarian) | TGI (NCI/ADR-RES ovarian) | TGI (RPMI-8226 leukemia) | TGI (MOLT-4 leukemia) | TGI (OVCAR-3 ovarian) | TGI (HL-60(TB) leukemia) | TGI (RXF 393 renal) | TGI (SK-OV-3 ovarian) | TGI (UO-31 renal) | TGI (M14 melanoma) | TGI (LOX IMVI melanoma)
